Active and inactive are the calls of the source.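 The calls were made as follows: active = signal falls with dose and the fitted half-maximal concentration is at or below twice the top valid tested dose; inconclusive = flat curve with 30 to 70% inhibition, or poor fit; inactive = wrong direction, flat within 30%, or potency beyond limit.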
The compounds below were run against Golgi-associated PDZ and coiled-coil motif-containing protein (Homo sapiens) (UniProt Q9HD26) (assay: CAL PDZ domain peptide-binding inhibitors, dose response, biochemical, fluorescence polarization, untagged CAL PDZ, cherry-pick (AID 602267)). Details: purified CAL PDZ, TMR-peptide fluorescence polarization, 1 h.

Compound | AC50
CCc1ccc(S(=O)(=O)/N=C2/C=C(Sc3ncn[nH]3)C(=O)c3ccccc32)cc1 | 16.4 µM

Same assay, conditions: purified CAL PDZ, TMR-peptide fluorescence polarization, 1 h; at 16 µM (top of the series)

Compound | activity change, negative = inhibition
C=CCOc1c(Cl)cc(CNn2cn[nH]c2=S)cc1OC | inactive
O=C(OCC(=O)N1CCOCC1)c1ccc[nH]c1=O | inactive

Same assay, conditions: purified CAL PDZ, TMR-peptide fluorescence polarization, 1 h; at 50 µM (top of the series)

Compound | activity change, negative = inhibition
COc1cc(N(C)C)ccc1C=c1c2ccccc2n2c1cc(-c1ccccc1)[n+]2C | inactive
Cc1[nH]c2ccccc2c1C(=O)CSc1nc2ncc(Cl)cc2[nH]1 | inactive
C/C(=N\NC(=O)c1cc(-c2ccc(C)s2)nc2ccccc12)c1cccnc1 | inactive
CCOc1ccccc1CN1CCC(n2nccc2NC(=O)C2CCCC2)CC1 | inactive
CS(=O)(=O)c1ccc2nc(NC(=O)CN3C(=O)C4CC=CCC4C3=O)sc2c1 (centres undefined) | inactive
COc1ccc(-n2c(=S)[nH]c3c(sc(=S)n3-c3ccccc3)c2=O)c(OC)c1 | inactive
Cn1c(CNC(=O)OC(C)(C)C)n[nH]c1=S | inactive
Cc1ccc2nc(-c3cccc(Br)c3)cc(C(=O)NC3=NCCS3)c2c1 | inactive
CCN(CC)S(=O)(=O)c1ccc(/C=C/C(=O)OCC(=O)N(C)C)cc1 | inactive
Cn1c(=O)c2c(ncn2CC(=O)Nc2nc(-c3ccccc3Cl)cs2)n(C)c1=O | inactive
CCn1ncc(Br)c1C(=O)Nc1cccc(F)c1 | inactive
COc1ccc(C(=O)Nc2nccs2)cc1 | inactive
O=C(NCc1ccccn1)Nc1ccc(F)c(Cl)c1 | inactive
CN1CC(=O)N(CC(=O)Nc2ccc(Br)cc2F)C1=O | inactive
CCNC(=S)N(CCN(CC)CC)Cc1cc2cc3c(cc2[nH]c1=O)OCCO3 | inactive
CC(C)CN1CCN(Cc2cccc3c2OCO3)CC1CCO (centres undefined) | inactive
Cc1ccnc(SCC(=O)N2CCC(C(N)=O)CC2)n1 | inactive
O=C(NC12CC3CC(CC(C3)C1)C2)c1ccco1 | inactive

Compound | activity change, negative = inhibition
FC(F)(F)c1cc(-c2cccs2)nc2ncnn12 | inactive
CN(C)c1ccc(C=c2c3cc(O)ccc3n3c2cc(-c2ccccc2)[n+]3C)cc1 | inactive
CCC(C)NC(=O)C1CCCN(C(=O)Nc2ccc(F)cc2)C1 (centres undefined) | inactive
CN(C)C1(CNC(=O)C2CCC(=O)N(CCc3ccc(Cl)cc3)C2)CCCCC1 (centres undefined) | inactive
CCOC(=O)CCC(=O)Nc1ccc(S(=O)(=O)N2CCC(C)CC2)cc1 | inactive
COc1cccc(CN2CCN(C3CSCCSC3)CC2CCO)c1 (centres undefined) | inactive
CC(=O)N1CCN(c2ccc(NC(=O)c3cccc(Cl)c3Cl)cc2)CC1 | inactive
Cc1cc(C(=O)Nc2ccccc2Cl)c2ccccc2n1 | inactive
Cc1ccc(Cl)c2c(N=Nc3ccccc3)c(O)[nH]c12 | inactive
CCOc1c(Cl)cc(CNc2nnnn2C)cc1OC | inactive
CCOC(=O)Cn1ncn(-c2ccc(OC(F)(F)F)cc2)c1=O | inactive
O=c1c2cc3c(cc2[nH]c(=S)n1CCN1CCOCC1)OCO3 | inactive
CCOc1ccccc1N(CC(=O)Nc1cccc2ccccc12)S(C)(=O)=O | inactive
COc1ccc(C(=O)c2ccc(C)cc2)c(OC)c1OC | inactive
C[n+]1ccc(C(=O)Nc2ccccc2Cl)cc1 | inactive
CCCNC(=O)C(=O)NCC1CCCN1CC (centres undefined) | inactive
Oc1ccc(/C=N\Nc2nncc(-c3ccccc3)n2)cc1 | inactive
N#C/C(=C\c1c[nH]c2ccccc12)C(=O)NC1CC1 | inactive
